Reference: US8729084B2, “Benzofuranyl analogues as GPR119 modulators” (Bristol-Myers Squibb Company, priority 2010, dated 2014)

target: T1, chimeric human/mouse GPR119 (Homo sapiens, UniProt Q8TDV5, A235T/C313R/C323Y/E253K/F304I/F307L/G211A/G245S/H255C/K284R/L224V/L258Q/L288Q/L301F/P218V/P318T/Q252H/R262K/S214P/S219N/S228A/S309P/S322A/T217S/T239S/V227I/V300F); assay: Tet-inducible cAMP assay (cAMP accumulation, HTRF); type: cell-based; details: not given
T1 construct: the first 198 amino acids of human GPR119; the C-terminal 137 amino acids of the mouse receptor; expressed in transfected cells
T1 sequence (Q8TDV5 with tags, fused parts or gaps G211A/S214P/T217S/P218V/S219N/L224V/V227I/S228A/A235T/T239S/G245S/Q252H/E253K/H255C/L258Q/R262K/K284R/L288Q/V300F/L301F/F304I/F307L/S309P/C313R/P318T/S322A/C323Y): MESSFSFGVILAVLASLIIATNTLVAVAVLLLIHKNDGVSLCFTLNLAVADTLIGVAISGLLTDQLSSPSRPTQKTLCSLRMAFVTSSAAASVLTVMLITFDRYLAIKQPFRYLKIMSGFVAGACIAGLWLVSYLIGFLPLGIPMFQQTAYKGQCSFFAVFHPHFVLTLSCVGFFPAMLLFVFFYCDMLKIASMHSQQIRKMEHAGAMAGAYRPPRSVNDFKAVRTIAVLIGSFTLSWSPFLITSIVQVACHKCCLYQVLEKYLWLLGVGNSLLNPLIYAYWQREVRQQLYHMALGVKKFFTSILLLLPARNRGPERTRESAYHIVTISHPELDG
Description: The in vitro modulation of recombinant human GPR119 was determined as follows.
A human-mouse chimeric GPR119 expression construct encoding 3 copies of the FLAG epitope tag, the first 198 amino acids of human GPR119 and the C-terminal 137 amino acids of the mouse receptor was cloned into a tetracycline inducible vector pcDNA5/FRT/TO (Invitrogen #V6520-20), which includes a hygromycin-resistance marker. Tightly controlled receptor expression was achieved by stable integration of this construct into the genome of a specific host cell line, Flp-In-T-Rex-HEK293, expressing the tetracycline repressor (Invitrogen). Once a stable hygromycin-resistant cell line was generated, the cells were maintained at 37° C. in a humidified 5% CO2 atmosphere in culture medium consisting of Dulbecco's modified Eagle's medium (DMEM; Invitrogen #11960) supplemented with 2 mM L-glutamine, 10% fetal bovine serum, 200 μg/ml hygromycin B, and 15 μg/ml blasticidin.
Forty-eight hours prior to the cAMP accumulation assay, cells stably expressing the chimeric human/mouse GPR119 construct were seeded at a density of 4×10^3 cells/well in 384 well poly-D-lysine coated solid white plates (BD #35-6661) and grown at 37° C. in a humidified 5% CO2 atmosphere in culture medium supplemented with 1 μg/ml tetracycline to induce expression of the receptor. On the day of the assay, medium was removed and cells were incubated for 50 min. at 37° C. in a humidified 5% CO2 atmosphere in 20 μl/well of assay buffer (phosphate-buffered saline with Ca^2+ and Mg^2+, 12 mM glucose, 0.1 mM isobutyl-methyl-xanthine, 0.1% fatty-acid free bovine serum albumin) with the desired concentration of compound added from a concentrated stock dissolved in dimethyl sulfoxide (DMSO) to give a final concentration of 1% DMSO in the assay. cAMP accumulation was measured using the CisBio homogeneous time resolved fluorescence (HTRF) assay kit (#62AM2PEC) following the manufacturer's protocol. Briefly, 10 μl each of the cAMP-HTRF fluorescence detection reagents were added to each well, and the samples were incubated for 40 min. at room temperature. Fluorescence was excited at 320 nm and measured at 665 and 620 nm using the Envision instrument (Perkin Elmer), the fluorescence ratio of 665/620 was calculated and converted to nanomolar concentrations of cAMP in each well by interpolation from a cAMP standard curve. The concentration-response curves and EC50 values were calculated with a four parameter logistic curve fit equation utilizing Excel/XLfit software (Microsoft and IDBS). The EC50 value was calculated as the concentration of agonist which increased the cAMP concentration to a value halfway between the baseline and the maximum.
Compounds of the present invention were tested in the Tet-inducible cAMP assay described immediately above and the results shown in Table 2 below were obtained.

Compared with CCCc1cnc(N2CCC(C3Cc4cc(C5=CCN(S(=O)(=O)CCC)CC5)cc(F)c4O3)CC2)nc1 (racemic) [Example 5, (±)-2-(4-(7-Fluoro-5-(1-(propylsulfonyl)-1,2,3,6-tetrahydropyridin-4-yl)-2,3-dihydrobenzofuran-2-yl)piperidin-1-yl)-5-propylpyrimidine], CCCc1cnc(N2CCC(C3Cc4cc(C5=CCN(S(=O)(=O)CCCCO)CC5)cc(F)c4O3)CC2)nc1 (stereo not drawn) [Example 4, 4-(4-(7-Fluoro-2-(1-(5-propylpyrimidin-2-yl)piperidin-4-yl)-2,3-dihydrobenzofuran-5-yl)-5,6-dihydropyridin-1(2H)-ylsulfonyl)butan-1-ol] is 2.7-fold higher in EC50: 61.8 nM for the first, 168 nM for the second. The first is the more potent here.

Going from CCCc1cnc(N2CCC(C3Cc4cc(N5CCN(S(=O)(=O)CCC)CC5)ccc4O3)CC2)nc1 (stereo not drawn) [Example 9, 5-Propyl-2-(4-(5-(4-(propylsulfonyl)piperazin-1-yl)-2,3-dihydrobenzofuran-2-yl)piperidin-1-yl)pyrimidine] to CCCS(=O)(=O)N1CC=C(c2ccc3c(c2)CC(C2CCN(C(=O)OC4CCCCC4)CC2)O3)CC1 (stereo not drawn) [Example 44], the EC50 falls from 1060 nM to 9.7 nM (110-fold).

same assay, conditions: Flp-In-T-Rex-HEK293 cells, tetracycline-induced receptor expression; cAMP accumulation after 50 min at 37° C.; read-out: GPR119 EC50

First: CC1(C2CCN(c3ncc(C4CC4)cn3)CC2)Cc2cc(C3=CCN(S(=O)(=O)CCCCO)CC3)ccc2O1 (stereo not drawn) [Example 11, 4-(4-(2-(1-(5-Cyclopropylpyrimidin-2-yl)piperidin-4-yl)-2-methyl-2,3-dihydrobenzofuran-5-yl)-5,6-dihydropyridin-1(2H)-ylsulfonyl)butan-1-ol]
Second: CCCS(=O)(=O)N1CC=C(c2cc(F)c3c(c2)CC(C2CCN(c4ncc(Cl)cn4)CC2)O3)CC1 (stereo not drawn) [Example 39]
The EC50 of the first is 2.9-fold higher: 8.9 nM for the first, 3.1 nM for the second.

Going from CCCS(=O)(=O)N1CCC(C2Cc3cc(C4=CCN(S(C)(=O)=O)CC4)ccc3O2)CC1 (stereo not drawn) [Example 21] to CCCS(=O)(=O)N1CC=C(c2ccc3c(c2)CC(C2CCN(c4ccc(Cl)cn4)CC2)O3)CC1 (stereo not drawn) [Example 41], the EC50 falls from 2430 nM to 82.7 nM (29-fold). The second is the more potent here.

CC(C)CS(=O)(=O)N1CC=C(c2cc(F)c3c(c2)CC(C2CCN(c4ncc(Cl)cn4)CC2)O3)CC1 (stereo not drawn) [Example 40] gave an EC50 of 3.4 nM.
